Source: the NIST ThermoML archive (doi:10.1021/je400231q)
± gives the expanded uncertainty stated by the source.

Details: 101.33 kPa, Liquid, Vibrating tube method

Structure (SMILES) | mass density (293.15 K) [kg/m3] | mass density (298.15 K) [kg/m3] | mass density (303.15 K) [kg/m3] | mass density (308.15 K) [kg/m3] | mass density (313.15 K) [kg/m3] | mass density (318.15 K) [kg/m3] | mass density (323.15 K) [kg/m3] | mass density (328.15 K) [kg/m3]
CC(CC(C)(C)C)CP(=O)([O-])CC(C)CC(C)(C)C.CCCCCCCCCCCCCC[P+](CCCCCC)(CCCCCC)CCCCCC | 894 ± 11 | 890.8 ± 11 | 887.7 ± 11 | 884.6 ± 11 | 881.5 ± 11 | 878.4 ± 11 | 875.3 ± 11 | 872.3 ± 11
CC(=O)[O-].CCn1cc[n+](C)c1 [1-ethyl-3-methylimidazolium acetate] | 1101.5 ± 12 | 1098.3 ± 12 | 1095.1 ± 12 | 1092 ± 12 | 1088.9 ± 12 | 1085.8 ± 12 | 1082.8 ± 12 | 1079.7 ± 12
CCOS(=O)(=O)[O-].CCn1cc[n+](C)c1 [1-ethyl-3-methylimidazolium ethyl sulfate] | 1236.7 ± 13 | 1233.2 ± 12 | 1229.8 ± 12 | 1226.3 ± 12 | 1222.9 ± 12 | 1219.5 ± 12 | 1216.2 ± 12 | 1212.8 ± 12
CCn1cc[n+](C)c1.CS(=O)(=O)[O-] [1-ethyl-3-methylimidazolium methanesulfonate] | 1244.4 ± 13 | 1240.9 ± 13 | 1237.4 ± 13 | 1233.9 ± 12 | 1230.5 ± 12 | 1227 ± 12 | 1223.7 ± 12 | 1220.3 ± 12
CCn1cc[n+](C)c1.N#C[S-] [1-ethyl-3-methylimidazolium thiocyanate] | 1119.2 ± 12 | 1116.1 ± 12 | 1113 ± 12 | 1109.9 ± 12 | 1106.9 ± 12 | 1103.8 ± 12 | 1100.8 ± 12 | 1097.8 ± 12
COS(=O)(=O)[O-].C[N+](CCO)(CCO)CCO [tris(2-hydroxyethyl) methylammonium methylsulfate] | 1347.2 ± 14 | 1344.3 ± 14 | 1341.4 ± 13 | 1338.5 ± 13 | 1335.7 ± 13 | 1332.9 ± 13 | 1330.2 ± 13 | 1327.4 ± 13
